Measured values: PubChem BioAssay AID2060604 (Molecular Pharmacology Branch, DTP, NCI, 2025)
Where “and” joins values, the source holds several entries; their conditions need not be identical. Equal entries are not always repeated. Each block holds one compound with its values, some of them ahead of it.

Test system: 379773-124-R-J2-PDC complex spheroids, viability % test/control
Test: Anticancer human tumor 379773-124-R-J2-PDC patient-derived endometrial carcinoma cell line growth inhibition [CLK]
Conditions: for viability, T/C: stronger effect = lower value
Method in brief: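 Patient-derived tumor cells grown as complex spheroids with HUVEC endothelial cells and mesenchymal stem cells, treated with drug combinations. Concentrations descend in half-log steps from near clinical Cmax, or from 10 microM if Cmax unknown.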

[1] = curve of first compound, second compound 0.0316 µM
[2] = curve of first compound, second compound 0.1 µM
[3] = curve of first compound, second compound 0.316 µM
[4] = curve of first compound, second compound 1 µM
[5] = curve of first compound, second compound 3.16 µM
[6] = curve of first compound, second compound 10 µM
[7] = second compound 0.0316 µM, first compound 0.0316 µM
[8] = second compound 0.0316 µM, first compound 0.1 µM
[9] = second compound 0.0316 µM, first compound 0.316 µM
[10] = second compound 0.0316 µM, first compound 1 µM
[11] = second compound 0.0316 µM, first compound 3.16 µM
[12] = second compound 0.0316 µM, first compound 10 µM
[13] = second compound 0.1 µM, first compound 0.0316 µM
[14] = second compound 0.1 µM, first compound 0.1 µM
[15] = second compound 0.1 µM, first compound 0.316 µM
[16] = second compound 0.1 µM, first compound 1 µM
[17] = second compound 0.1 µM, first compound 3.16 µM
[18] = second compound 0.1 µM, first compound 10 µM
[19] = second compound 0.316 µM, first compound 0.0316 µM
[20] = second compound 0.316 µM, first compound 0.1 µM
[21] = second compound 0.316 µM, first compound 0.316 µM
[22] = second compound 0.316 µM, first compound 1 µM
[23] = second compound 0.316 µM, first compound 3.16 µM
[24] = second compound 0.316 µM, first compound 10 µM
[25] = second compound 1 µM, first compound 0.0316 µM
[26] = second compound 1 µM, first compound 0.1 µM
[27] = second compound 1 µM, first compound 0.316 µM
[28] = second compound 1 µM, first compound 1 µM
[29] = second compound 1 µM, first compound 3.16 µM
[30] = second compound 1 µM, first compound 10 µM
[31] = second compound 3.16 µM, first compound 0.0316 µM
[32] = second compound 3.16 µM, first compound 0.1 µM
[33] = second compound 3.16 µM, first compound 0.316 µM
[34] = second compound 3.16 µM, first compound 1 µM
[35] = second compound 3.16 µM, first compound 3.16 µM
[36] = second compound 3.16 µM, first compound 10 µM
[37] = second compound 10 µM, first compound 0.0316 µM
[38] = second compound 10 µM, first compound 0.1 µM
[39] = second compound 10 µM, first compound 0.316 µM
[40] = second compound 10 µM, first compound 1 µM
[41] = second compound 10 µM, first compound 3.16 µM
[42] = second compound 10 µM, first compound 10 µM
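Further: compound exposure lasted seven days before the viability readout.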
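Wherever viability, T/C is given: 100% = DMSO vehicle control wells.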

SMILES: Nc1ccccc1NC(=O)c1ccc(CNC(=O)OCc2cccnc2)cc1 + CNC(=O)c1ccc(Nc2nc(OC3CCCC3)c3c(-c4ccc5nc(C)oc5c4)c[nH]c3n2)c(OC)c1
IC50 [1]: 1820 nM
IC50 [2]: < 31.6 nM
IC50 [3]: < 31.6 nM
IC50 [4]: < 31.6 nM
IC50 [5]: < 31.6 nM
IC50 [6]: < 31.6 nM
viability, T/C [7]: 87.7%
viability, T/C [8]: 81.9%
viability, T/C [9]: 95.7%
viability, T/C [10]: 70.6%
viability, T/C [11]: 29.8%
viability, T/C [12]: 7.39%
viability, T/C [13]: 32.2%
viability, T/C [14]: 40.1%
viability, T/C [15]: 36.5%
viability, T/C [16]: 27.8%
viability, T/C [17]: 11.5%
viability, T/C [18]: 5.65%
viability, T/C [19]: 44.5%
viability, T/C [20]: 40.2%
viability, T/C [21]: 27.7%
viability, T/C [22]: 25.4%
viability, T/C [23]: 15.3%
viability, T/C [24]: 4.66%
viability, T/C [25]: 39.1%
viability, T/C [26]: 29.2%
viability, T/C [27]: 28.4%
viability, T/C [28]: 20.4%
viability, T/C [29]: 14.3%
viability, T/C [30]: 3.91%
viability, T/C [31]: 31.8%
viability, T/C [32]: 30.1%
viability, T/C [33]: 25.1%
viability, T/C [34]: 21.4%
viability, T/C [35]: 12.9%
viability, T/C [36]: 3.52%
viability, T/C [37]: 38.7%
viability, T/C [38]: 30.2%
viability, T/C [39]: 25.2%
viability, T/C [40]: 17.3%
viability, T/C [41]: 12.2%
viability, T/C [42]: 2.97%

SMILES: CN1CCN(c2cc(C(=O)Nc3cc4cc(-c5cnn(C)c5)ccc4cn3)ccn2)CC1
viability, T/C (compound 0.0316 µM): 95.6% [middle of 12 runs]
viability, T/C (compound 0.316 µM): 28.3% [middle of 12 runs]
viability, T/C (compound 1 µM): 0.33% [middle of 10 runs]
viability, T/C (compound 3.16 µM): 0.29% [middle of 9 runs]
viability, T/C (compound 10 µM): 0.22% [middle of 9 runs]
IC50 (compound alone, run of 09/18/2023): 199 nM [middle of 12 runs]

SMILES: COc1cccc2c1C(=O)c1c(O)c3c(c(O)c1C2=O)CC(O)(C(=O)CO)CC3OC1CC(N)C(O)C(C)O1 (stereo unspecified) + CN1CCN(c2cc(C(=O)Nc3cc4cc(-c5cnn(C)c5)ccc4cn3)ccn2)CC1
IC50 [1]: < 31.6 nM
IC50 [2]: < 31.6 nM
IC50 [3]: < 31.6 nM
IC50 [4]: < 31.6 nM
IC50 [5]: < 31.6 nM
IC50 [6]: < 31.6 nM
viability, T/C [7]: 41%
viability, T/C [8]: 11.9%
viability, T/C [9]: 5.69%
viability, T/C [10]: 3.76%
viability, T/C [11]: 0.3%
viability, T/C [12]: 0.91%
viability, T/C [13]: 30.5%
viability, T/C [14]: 10.3%
viability, T/C [15]: 9.14%
viability, T/C [16]: 3.16%
viability, T/C [17]: 0.33%
viability, T/C [18]: 0.09%
viability, T/C [19]: 8.53%
viability, T/C [20]: 8.1%
viability, T/C [21]: 3.09%
viability, T/C [22]: 2.71%
viability, T/C [23]: 0.12%
viability, T/C [24]: 0.21%
viability, T/C [25]: 0.13%
viability, T/C [26]: 0.1%
viability, T/C [27]: 0.78%
viability, T/C [28]: 1.01%
viability, T/C [29]: 0.06%
viability, T/C [30]: 0.16%
viability, T/C [31]: 2.21%
viability, T/C [32]: 0.27%
viability, T/C [33]: 1.48%
viability, T/C [34]: 0.04%
viability, T/C [35]: 0.07%
viability, T/C [36]: 0.17%
viability, T/C [37]: 1.64%
viability, T/C [38]: 0.35%
viability, T/C [39]: 0.12%
viability, T/C [40]: 2.01%
viability, T/C [41]: 0.31%
viability, T/C [42]: 0.12%

SMILES: CC(Nc1ccc2c(c1)OCCn1cc(N3C(=O)OCC3C(F)F)nc1-2)C(N)=O (stereo unspecified)
viability, T/C (compound 0.0316 µM): 84.9% and 92.7%
viability, T/C (compound 0.1 µM): 93.1% and 85.8%
viability, T/C (compound 0.316 µM): 93.5% and 79.4%
viability, T/C (compound 1 µM): 79% and 87.4%
viability, T/C (compound 3.16 µM): 77.1% and 78.5%
viability, T/C (compound 10 µM): 69.1% and 67.6%
IC50 (curve of compound): > 10000 nM

Now from value to compound, other results behind:

IC50 [1]: 5290 nM
IC50 [2]: < 31.6 nM
IC50 [3]: < 31.6 nM
IC50 [4]: < 31.6 nM
IC50 [5]: < 31.6 nM
IC50 [6]: < 31.6 nM
SMILES: COC1C=CCC(C)C(C)S(=O)(=O)NC(=O)c2ccc3c(c2)N(CC2CCC21)CC1(CCCc2cc(Cl)ccc21)CO3 (stereo unspecified) + CNC(=O)c1ccc(Nc2nc(OC3CCCC3)c3c(-c4ccc5nc(C)oc5c4)c[nH]c3n2)c(OC)c1
viability, T/C [7]: 85.2%
viability, T/C [8]: 82.8%
viability, T/C [9]: 90.5%
viability, T/C [10]: 90%
viability, T/C [11]: 90%
viability, T/C [12]: 3.4%
viability, T/C [13]: 41.3%
viability, T/C [14]: 35.1%
viability, T/C [15]: 33.8%
viability, T/C [16]: 29.2%
viability, T/C [17]: 37%
viability, T/C [18]: 3.05%
viability, T/C [19]: 37.3%
viability, T/C [20]: 39.6%
viability, T/C [21]: 30.1%
viability, T/C [22]: 20.1%
viability, T/C [23]: 20.5%
viability, T/C [24]: 2.22%
viability, T/C [25]: 36.4%
viability, T/C [26]: 36.4%
viability, T/C [27]: 25.6%
viability, T/C [28]: 20.1%
viability, T/C [29]: 18.1%
viability, T/C [30]: 2.26%
viability, T/C [31]: 31.5%
viability, T/C [32]: 33.8%
viability, T/C [33]: 23.3%
viability, T/C [34]: 18.4%
viability, T/C [35]: 13%
viability, T/C [36]: 1.56%
viability, T/C [37]: 35.1%
viability, T/C [38]: 42.5%
viability, T/C [39]: 30.4%
viability, T/C [40]: 21.6%
viability, T/C [41]: 11.7%
viability, T/C [42]: 1.66%

IC50 (curve of compound): 34.5 nM and < 31.6 nM
SMILES: COc1cccc2c1C(=O)c1c(O)c3c(c(O)c1C2=O)CC(O)(C(=O)CO)CC3OC1CC(N)C(O)C(C)O1 (stereo unspecified)
viability, T/C (compound 0.0316 µM): 53.6% and 49.6%
viability, T/C (compound 0.1 µM): 9.76% and 9.37%
viability, T/C (compound 0.316 µM): 7.51% and 5.56%
viability, T/C (compound 1 µM): 3.51% and 3.77%
viability, T/C (compound 3.16 µM): 1.61% and 0.59%
viability, T/C (compound 10 µM): 0.12% and 0.15%
